Test results taken from patent publication US20230135761A1, “TRANSGENIC PLANTS HAVING PROLONGED RIPENING AND REDUCED SUSCEPTIBILITY TO PATHOGENS” (MIGAL GALILEE RESEARCH INSTITUTE LTD, priority 2020, published 2023).

System: ICDH1 mRNA
Assay: ICDH1 mRNA levels by real time PCR in 1-MCP-treated tomato fruits
Type: in vivo, Solanum lycopersicum; cv. Micro Tom
Conditions: 1-MCP-treated vs untreated Micro-Tom tomatoes; 24 hr at 20° C.; stages MG, BRK, EO; FIG. 2
Experimental: Tomato (Solanum lycopersicum; cv. Micro Tom) plants were grown under natural light in a climate-controlled greenhouse, at 24° C. during the day and 18° C. during the night. 1-MCP was applied using SmartFresh powder (Rohm and Haas, Philadelphia, Pa., USA) containing 0.14% 1-MCP as active ingredient, dissolved in warm water at a concentration of 2,000 nL·mL^−1 1-MCP (stock solution). Fruits were enclosed in a 30 L airtight barrel and the stock solution was injected to a final concentration of […]. Treatment duration was 24 hr at 20° C. For the control, fruits were treated identically excluding 1-MCP application (Gamrasni et al., 2017).
RNA was extracted using NucleoSpin® RNA Plant kit (Macherey-Nagel) according to the manufacturer's protocol. cDNA was prepared from 1 μg total RNA with Verso cDNA Synthesis Kit (ThermoFisher Scientific). The reaction was performed at 42° C. for 30 min. followed by inactivation at 95° C. for 2 min. […] Relative expression ratio was normalized to the S1ASR gene (Solyc04g071610) used as an internal control (Relative RNA levels were determined by the delta-delta Ct method). The significance of results (n=3) was evaluated by independent t-test at *P<0.05 using the SPSS Statistics 20 software (IBM, USA).

CC1=CC1 [1-MCP, 1-methylcyclopropene]
ICDH1 mRNA production / levels: reduced significantly
